The assay concerns the target wild type α-HL single channel (Staphylococcus aureus, UniProt P09616). In kind it is binding.

Chain of wild type α-HL single channel (P09616 27-319 limits assumed): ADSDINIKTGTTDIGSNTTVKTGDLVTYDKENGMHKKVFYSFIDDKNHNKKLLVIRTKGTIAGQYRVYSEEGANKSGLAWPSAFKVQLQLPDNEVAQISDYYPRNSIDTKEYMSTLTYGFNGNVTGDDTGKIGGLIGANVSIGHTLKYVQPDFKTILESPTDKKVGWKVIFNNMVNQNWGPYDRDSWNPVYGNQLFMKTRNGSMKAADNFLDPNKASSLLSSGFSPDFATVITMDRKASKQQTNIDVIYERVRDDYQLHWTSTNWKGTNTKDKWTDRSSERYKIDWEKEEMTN

As to “heptakis-6-amino-β-cyclodextrin [am7-βCD]”, the “Cyclodextrin binding to wild type pore” value is listed as “led to cyclodextrin binding events”.

These data come from US8785211B2 (priority 2005, dated 2014).
